Some test systems named below: SF-268 CNS; SN12C renal; 786-0 renal; SF-295 CNS; UO-31 renal; HT29 colon; NCI-H23 lung; CAKI-1 renal; M14 melanoma; MDA-N; MDA-MB-231 breast; DU-145 prostate.
Experiment in all cases: NCI-60 cell line screen, 48 h

The structures appear in SMILES notation. In brackets after ≈: the same amount, converted by molar mass.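 Assay format: 96-well plates, 48-hour exposure. GI50 marks 50% less growth. Definition used: TGI = concentration required for complete inhibition of growth.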

With `O=C(Nc1c(Cl)cc([N+](=O)[O-])cc1Cl)/C(=N\Nc1cccc(Cl)c1)c1c(O)c2ccccc2oc1=O`, the TGI was > 100 µM in the assay with SF-268 CNS; > 100 µM in the assay with SN12C renal; > 100 µM in the assay on 786-0 renal; > 100 µM in the assay on SF-295 CNS; 78.1 µM in the assay with UO-31 renal; > 100 µM with HT29 colon. In the assay on NCI-H23 lung, the TGI is > 100 µM.

Regarding `CCOC(=O)/C=C/c1ccccn1`, the TGI in the assay on SF-268 CNS, in the assay on SN12C renal, with 786-0 renal, in the assay on SF-295 CNS, in the assay with CAKI-1 renal and with UO-31 renal was > 100 µM in each case. Also, the TGI with HT29 colon, with M14 melanoma and in the assay with NCI-H23 lung was > 100 µM in each case.

Regarding `CCN(CC)CCOc1ccc(C(=C2CCCCC2)c2ccc(OCCN(CC)CC)cc2)cc1`, the TGI in the assay with SF-268 CNS amounted to 3.23 µM; in the assay with SN12C renal it was 3.09 µM; in the assay on 786-0 renal it was 2.69 µM; in the assay with SF-295 CNS it was 3.3 µM; in the assay with CAKI-1 renal, 3.7 µM; with UO-31 renal, 2.96 µM. Also, the TGI in the assay with HT29 colon is 2.32 µM; in the assay with M14 melanoma, 2.91 µM; with NCI-H23 lung, 3.56 µM.

Consider `C[C@@H]1OC(=O)/C(=C\N(C)C)[C@H]2CC(=O)N(CCc3cn(S(=O)(=O)C(F)(F)F)c4ccccc34)C[C@H]12`, for which the TGI in the assay on MDA-N, in the assay on SF-268 CNS, in the assay on SN12C renal, in the assay with 786-0 renal, in the assay on SF-295 CNS and with CAKI-1 renal was > 100 µM each time. The TGI in the assay with UO-31 renal, in the assay on MDA-MB-231 breast, in the assay on M14 melanoma and in the assay on NCI-H23 lung was > 100 µM each time.

Regarding `Cc1cc(C#N)c(Nc2c(C)cccc2[N+](=O)[O-])s1`, the TGI in the assay with MDA-N was > 100 µM; in the assay on SF-268 CNS it was 84.9 µM; in the assay with SN12C renal, > 100 µM; in the assay with 786-0 renal, 89.9 µM; in the assay with DU-145 prostate, > 100 µM; with SF-295 CNS it was > 100 µM. The TGI in the assay with CAKI-1 renal is > 100 µM; in the assay on UO-31 renal, > 100 µM; in the assay with MDA-MB-231 breast, 79.4 µM; in the assay with M14 melanoma, > 100 µM; with NCI-H23 lung, > 100 µM.

Regarding `CC(C)(C)NC1C2CCC(C)(C1O)C2(C)C` (stereo unspecified), the TGI in the assay with SF-268 CNS, in the assay with 786-0 renal, in the assay with DU-145 prostate, in the assay with SF-295 CNS, in the assay with CAKI-1 renal and with UO-31 renal was > 100 µM each time. Moreover, the TGI in the assay with MDA-MB-231 breast, in the assay with HT29 colon, in the assay on M14 melanoma and in the assay on NCI-H23 lung was > 100 µM throughout.

For `Cc1ccc(C2=C(c3ccccc3)C(O)(c3ccc(C)cc3)C(c3ccccc3)=C2c2ccc(C)cc2)cc1`, the TGI in the assay on SF-268 CNS, with SN12C renal, with 786-0 renal, in the assay with SF-295 CNS, in the assay on CAKI-1 renal and in the assay with M14 melanoma was > 100 µM each time. Also, the TGI with NCI-H23 lung is 40.2 µM.

Turning to `Cc1cc2[nH]c3c(C#N)c(-c4ccccc4)c(CN4CCOCC4)c(=O)n3c2cc1C`, the TGI in the assay on MDA-N, in the assay on SF-268 CNS, with SN12C renal, in the assay with 786-0 renal, in the assay with SF-295 CNS and with CAKI-1 renal was > 100 µM each time. Moreover, the TGI with UO-31 renal, with MDA-MB-231 breast, in the assay with M14 melanoma and in the assay on NCI-H23 lung was > 100 µM throughout.

As for `CC(=O)NC(CCCCNC(=O)N(C)N=O)C(=O)NCc1ccccc1` (stereo unspecified), the TGI with SF-268 CNS, in the assay with SN12C renal, in the assay with 786-0 renal, with SF-295 CNS, in the assay with CAKI-1 renal and in the assay on UO-31 renal was > 100 µM in each case. For the same compound, the TGI with HT29 colon, with M14 melanoma and in the assay on NCI-H23 lung was > 100 µM in each case.

Turning to `NC(N)=Nc1nc2ccccc2[nH]1`, the GI50 with SF-268 CNS was 128 µg/mL (≈ 732 µM); in the assay on SN12C renal, 72.9 µg/mL (≈ 416 µM); in the assay with SF-295 CNS it was 34.4 µg/mL (≈ 197 µM); with CAKI-1 renal it was 48.8 µg/mL (≈ 279 µM); in the assay with UO-31 renal, 20 µg/mL (≈ 114 µM); with HT29 colon, 51.3 µg/mL (≈ 293 µM). Also, the GI50 in the assay on NCI-H23 lung was 121 µg/mL (≈ 691 µM). Further, the TGI with SF-268 CNS was > 150 µg/mL; in the assay on SN12C renal, > 150 µg/mL; in the assay with SF-295 CNS, 111 µg/mL; in the assay on CAKI-1 renal, > 150 µg/mL; in the assay on UO-31 renal, 107 µg/mL; in the assay on HT29 colon it was > 150 µg/mL. For the same compound, the TGI in the assay with NCI-H23 lung was > 150 µg/mL.

Regarding `O=c1[nH]c(=O)n(C2CC(O)C(CO)O2)cc1C#Cc1cc(F)cc(F)c1` (stereo unspecified), the TGI in the assay on SF-268 CNS, in the assay with SN12C renal, in the assay on 786-0 renal, in the assay on SF-295 CNS, in the assay with CAKI-1 renal and in the assay with UO-31 renal was > 100 µM throughout. The TGI in the assay on HT29 colon, in the assay with M14 melanoma and with NCI-H23 lung was > 100 µM throughout.

Take `CCCCCCCC/C=C/CCCCCCCC1CC(O)C(=O)O1` (stereo unspecified): the TGI with MDA-N, in the assay on SF-268 CNS, in the assay with 786-0 renal, with DU-145 prostate, in the assay on SF-295 CNS and with UO-31 renal was > 100 µM in each case. Further, the TGI in the assay on MDA-MB-231 breast, in the assay on HT29 colon, in the assay on M14 melanoma and with NCI-H23 lung was > 100 µM in each case.

For `NC(CCCCNC(=O)C(Cc1ccccc1)NC(=O)OCc1ccccc1)C(=O)NC(CCCCNC(=O)C(Cc1ccccc1)NC(=O)OCc1ccccc1)C(=O)NC(CCCCNC(=O)C(Cc1ccccc1)NC(=O)OCc1ccccc1)C(=O)NC(CCCCNC(=O)C(Cc1ccccc1)NC(=O)OCc1ccccc1)C(=O)NC(CCCCNC(=O)C(Cc1ccccc1)NC(=O)OCc1ccccc1)C(=O)NC(CCCCNC(=O)C(Cc1ccccc1)NC(=O)OCc1ccccc1)C(=O)O` (stereo unspecified), the TGI in the assay on MDA-N, in the assay on SF-268 CNS, in the assay with SN12C renal, in the assay with 786-0 renal, with DU-145 prostate and in the assay on CAKI-1 renal was > 100 µM throughout. The TGI in the assay on UO-31 renal, with MDA-MB-231 breast, in the assay with HT29 colon, in the assay with M14 melanoma and with NCI-H23 lung was > 100 µM in each case.

The record behind these values is PubChem BioAssay (NCI).
